The target in assay [1] is T1, Proteinase-activated receptor 2 (Homo sapiens, UniProt P55085).
T1 sequence (P55085 whole entry): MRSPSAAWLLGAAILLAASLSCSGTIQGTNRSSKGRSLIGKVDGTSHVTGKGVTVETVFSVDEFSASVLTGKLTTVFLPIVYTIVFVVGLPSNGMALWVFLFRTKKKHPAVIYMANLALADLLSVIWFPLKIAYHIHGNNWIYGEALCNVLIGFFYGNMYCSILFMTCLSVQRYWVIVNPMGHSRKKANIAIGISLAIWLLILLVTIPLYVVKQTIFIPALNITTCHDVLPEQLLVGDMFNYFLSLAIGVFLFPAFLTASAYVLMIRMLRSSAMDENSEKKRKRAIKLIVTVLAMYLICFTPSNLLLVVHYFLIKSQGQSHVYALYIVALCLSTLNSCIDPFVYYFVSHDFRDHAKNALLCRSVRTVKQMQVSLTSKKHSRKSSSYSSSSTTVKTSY
Nature of the assay: Agonist activity at PAR2 expressed in human HT29 cells assessed as intracellular calcium release. The class given is functional, cell-based, HT-29.

Assay [2] deals with Proteinase-activated receptor 2 (Homo sapiens) (UniProt P55085). As to the kind of experiment: Agonist activity at PAR2 expressed in 2-furoyl-LIGRLI-NH2 treated human HT29 cells assessed as intracellular calcium response. The conditions noted are these: HT-29. The format is functional, cell-based.

Structures are written as SMILES. Activity calls are given as the source filed them. The rule behind the calls is not given here. Square brackets hold non-standard residues; d marks the D form. Peptide text beside a SMILES is read from it. * marks the point of attachment. Phe(4-NO2) = N[C@@H](Cc1ccc([N+](=O)[O-])cc1)C(=O)O; Phe(4-I) = N[C@@H](Cc1ccc(I)cc1)C(=O)O; Oxazole4CO(2-Me) = Cc1nc(C(=O)*)co1

For `CC[C@H](C)[C@H](NC(=O)[C@H](Cc1ccc([N+](=O)[O-])cc1)NC(=O)[C@H](CCCNC(=N)N)NC(=O)CNC(=O)[C@@H](NC(=O)[C@H](CC(C)C)NC(=O)[C@@H](N)CO)[C@@H](C)CC)C(N)=O` (H-SLIGR[Phe(4-NO2)]I-NH2), in assay [1], the 50% effective concentration (EC50) turned out to be 400 nM. In assay [2], the outcome was inactive. Consider `CC[C@H](C)[C@H](NC(=O)[C@H](CC(C)C)NC(=O)c1coc(C)n1)C(=O)NCC(=O)N[C@@H](CCCNC(=N)N)C(=O)N[C@@H](Cc1ccc(I)cc1)C(N)=O` ({Oxazole4CO(2-Me)}-LIGR[Phe(4-I)]-NH2), for which, in assay [1], the concentration for a half-maximal effect (EC50) worked out at 320 nM.

The record behind these values is ChEMBL document CHEMBL1137449, “A refined agonist pharmacophore for protease activated receptor 2” (Bioorg Med Chem Lett, 2007).
